{
  "source": "patent US6583159B1",
  "about": "“Substitute 1-(piperidin-4-yl)-3-(aryl)-isothioureas, their preparation and therapeutic use” (Pierre Fabre Medicament, priority 1999, dated 2003)",
  "key": {"anesthetized rabbit": {"test_system": "anesthetized rabbit", "experiment": "Ischemia-reperfusion in the anesthetized rabbit, oral", "assay_type": "in vivo", "description": "The compounds of the present invention are also active orally in the test of ischemia-reperfusion in the anesthetized rabbit according to the method of Verscheure et al., (J. Cardiovasc. Pharmacol., 1995, 25, 126-133)."}, "[1]": {"test_system": "guinea pig perfused isolated heart", "experiment": "Antiischemic activity, global ischemia in the guinea pig perfused isolated heart", "assay_type": "cell-based", "settings": "Cavia porcellus, 10^−6M, ischemic contraction vs vehicle group", "method": "The antiischemic activity was measured with regard to the test of the guinea pig perfused isolated heart according to the technique of Le Grand B. et al. (Am. J. Physiol., 269, H533-H540, 1995). The guinea pig hearts are removed, perfused with a modified Krebs solution and the compound to be studied, in solution in water or in a 99/01 water/DMSO mixture (according to solubility), is added after 20 minutes. […], global ischemia is brought about by halting coronary perfusion for 50 min, followed by reperfusion for 1 h. The inhibition of ischemic contraction in the presence of the compound studied is measured with respect to that of the vehicle group. The results are shown in Table II as nonlimiting examples at a concentration of 10^−6M."}, "rat isolated left atrium": {"test_system": "rat isolated left atrium", "experiment": "Inhibition of the contraction with veratrine of the rat isolated left atrium", "assay_type": "cell-based", "settings": "10^−7M, veratrine-induced contraction", "method": "The inhibition of the contraction with veratrine of the rat isolated left atrium was carried out according to the technique of Le Grand et al. (Naunyn-Schmiedebergs Arch. Pharmacol., (1993) 348, p. 184-190). The results are shown in Table I below, where the percentages of the inhibition are given at a concentration of 10^−7M."}},
  "note": "Structures can show the parent of a compound that is named as a salt.",
  "data": [
    {"compound": "CS/C(=N\\c1ccccc1)N(C)C1CCN(CCCCOc2ccc(C)c(C)c2)CC1.O=C(O)/C=C/C(=O)O", "values": [
      {"measurement": "melting point", "result": "138 to 139", "unit": "°C"}
    ]},
    {"compound": "COc1cc(Cl)ccc1OCCCCN1CCC(N(C)/C(=N/c2ccccc2)SC)CC1.O=C(O)/C=C/C(=O)O", "values": [
      {"measurement": "melting point", "result": "106 to 107", "unit": "°C"}
    ]},
    {"compound": "CS/C(=N\\c1ccccc1F)N(C)C1CCN(CCCCOc2ccc(F)c(F)c2)CC1.O=C(O)/C=C/C(=O)O", "values": [
      {"measurement": "melting point", "result": 148, "unit": "°C"}
    ]},
    {"compound": "CS/C(=N\\c1ccc(Cl)cc1)N(C)C1CCN(CCCCOc2ccc(F)c(F)c2)CC1.O=C(O)/C=C/C(=O)O", "values": [
      {"measurement": "melting point", "result": 130, "unit": "°C"}
    ]},
    {"compound": "CS/C(=N\\c1ccc(C)cc1)N(C)C1CCN(CCCCOc2ccc(F)c(F)c2)CC1.O=C(O)/C=C/C(=O)O", "values": [
      {"measurement": "melting point", "result": 141, "unit": "°C"}
    ]},
    {"compound": "COc1ccc(/N=C(\\SC)N(C)C2CCN(CCCCOc3ccc(F)c(F)c3)CC2)cc1.O=C(O)/C=C/C(=O)O", "values": [
      {"measurement": "melting point", "result": 130, "unit": "°C"}
    ]},
    {"compound": "CS/C(=N\\c1c(C)cccc1C)N(C)C1CCN(CCCCOc2ccc(F)c(F)c2)CC1.O=C(O)/C=C/C(=O)O", "values": [
      {"measurement": "melting point", "result": 129, "unit": "°C"}
    ]},
    {"compound": "CS/C(=N\\c1c(C(C)C)cccc1C(C)C)N(C)C1CCN(CCCCOc2ccc(F)c(F)c2)CC1.O=C(O)/C=C/C(=O)O", "values": [
      {"measurement": "melting point", "result": 194, "unit": "°C"}
    ]},
    {"compound": "CS/C(=N\\c1cccc(F)c1)N(C)C1CCN(CCCCOc2ccc(F)c(F)c2)CC1.O=C(O)/C=C/C(=O)O", "values": [
      {"measurement": "melting point", "result": 133, "unit": "°C"}
    ]},
    {"compound": "CCS/C(=N\\c1ccccc1)N(C)C1CCN(CCCCOc2ccc(F)c(F)c2)CC1.O=C(O)/C=C/C(=O)O", "values": [
      {"measurement": "melting point", "result": "151 to 152", "unit": "°C"}
    ]},
    {"compound": "CS/C(=N\\c1ccc([N+](=O)[O-])cc1)N(C)C1CCN(CCCCOc2ccc(F)c(F)c2)CC1.O=C(O)/C=C/C(=O)O", "values": [
      {"measurement": "melting point", "result": 132, "unit": "°C"}
    ]},
    {"compound": "CS/C(=N\\c1ccccc1)N(C)C1CCN(CCCOCCc2ccc(F)cc2)CC1.O=C(O)/C=C/C(=O)O", "values": [
      {"measurement": "melting point", "result": "110 to 111", "unit": "°C"}
    ]},
    {"compound": "CS/C(=N\\c1ccccc1)N(CC(C)C)C1CCN(CCCCOc2ccc(F)c(F)c2)CC1.O=C(O)/C=C/C(=O)O", "values": [
      {"measurement": "melting point", "result": "131 to 132", "unit": "°C"}
    ]},
    {"compound": "CS/C(=N\\c1ccccc1)N(C)C1CCN(CCCCCOc2ccc(F)c(F)c2)CC1.O=C(O)/C=C/C(=O)O", "values": [
      {"measurement": "melting point", "result": "129 to 130", "unit": "°C"}
    ]},
    {"compound": "CS/C(=N\\c1ccccc1)N(C)C1CCN(CCCOc2ccc(F)c(F)c2)CC1.O=C(O)/C=C/C(=O)O", "values": [
      {"measurement": "melting point", "result": "106 to 107", "unit": "°C"}
    ]},
    {"compound": "CS/C(=N\\c1ccccc1)N(C)C1CCN(CCCCOc2ccc(F)cc2)CC1.O=C(O)/C=C/C(=O)O", "values": [
      {"measurement": "melting point", "result": "133 to 134", "unit": "°C"}
    ]},
    {"compound": "CS/C(=N\\c1ccccc1)N(C)C1CCN(CCOc2ccc(F)cc2)CC1.O=C(O)/C=C/C(=O)O", "values": [
      {"measurement": "melting point", "result": 120, "unit": "°C"}
    ]},
    {"compound": "COc1ccc(OCCCCN2CCC(N(C)/C(=N/c3ccccc3)SC)CC2)cc1.O=C(O)/C=C/C(=O)O", "values": [
      {"measurement": "melting point", "result": 120, "unit": "°C"}
    ]},
    {"compound": "CS/C(=N\\c1ccccc1)N(C)C1CCN(CCCCOc2ccc(F)c(F)c2)CC1.O=C(O)/C=C/C(=O)O", "note": "[Example 1, 1,2-Dimethyl-3-phenyl-1-[1-[4-(3,4-difluorophenoxy)butyl]piperidin-4-yl]isothiourea hydrogen fumarate]", "values": [
      {"measurement": "% arterial pressure variation", "setting": "anesthetized rabbit; 0.63 mg/kg p.o.", "result": "−3", "unit": "%"},
      {"measurement": "% heart rate variation", "setting": "anesthetized rabbit; 0.63 mg/kg p.o.", "result": 5, "unit": "%"},
      {"measurement": "% inhibition with regard to ST-segment elevation", "setting": "anesthetized rabbit; 0.63 mg/kg p.o.", "result": 58, "unit": "%"},
      {"measurement": "Number of animals exhibiting reperfusion arrhythmias", "setting": "anesthetized rabbit; 0.63 mg/kg p.o.", "result": "1/5"},
      {"measurement": "inhibition at 1 µM", "setting": "[1]", "result": 69, "unit": "%"},
      {"measurement": "inhibition at 0.1 µM", "setting": "rat isolated left atrium", "result": 28, "unit": "%"},
      {"measurement": "melting point", "result": "151 to 152", "unit": "°C"}
    ]},
    {"compound": "CCN(/C(=N/c1ccccc1)SC)C1CCN(CCCCOc2ccc(F)c(F)c2)CC1.O=C(O)/C=C/C(=O)O", "note": "[Example 3, 1-Ethyl-1-[1-[4-(3,4-difluorophenoxy)butyl]piperidin-4-yl]-2-methyl-3-phenylisothiourea hydrogen fumarate]", "values": [
      {"measurement": "inhibition at 0.1 µM", "setting": "rat isolated left atrium", "result": 32, "unit": "%"},
      {"measurement": "melting point", "result": "120 to 121", "unit": "°C"}
    ]},
    {"compound": "CS/C(=N\\c1ccc(F)cc1)N(C)C1CCN(CCCCOc2ccc(F)c(F)c2)CC1.O=C(O)/C=C/C(=O)O", "note": "[Example 13, 1,2-Dimethyl-1-[1-[4-(3,4-difluorophenoxy)butyl]piperidin-4-yl]-3-(4-fluorophenyl)isothiourea hydrogen fumarate]", "values": [
      {"measurement": "inhibition at 0.1 µM", "setting": "rat isolated left atrium", "result": 34, "unit": "%"},
      {"measurement": "melting point", "result": 125, "unit": "°C"}
    ]},
    {"compound": "CS/C(=N\\c1c(F)cccc1F)N(C)C1CCN(CCCCOc2ccc(F)c(F)c2)CC1", "note": "[Example 21, 1,2-Dimethyl-1-[1-[4-(3,4-difluorophenoxy)butyl]piperidin-4-yl]-3-(2,6-difluorophenyl)isothiourea hydrogen fumarate]", "values": [
      {"measurement": "inhibition at 1 µM", "setting": "[1]", "result": 53, "unit": "%"},
      {"measurement": "inhibition at 0.1 µM", "setting": "rat isolated left atrium", "result": 31, "unit": "%"}
    ]},
    {"compound": "CN(C1=Nc2ccccc2CS1)C1CCN(CCCCOc2ccc(F)c(F)c2)CC1", "note": "[PF Control, N-[1-[4-(3,4-Difluorophenoxy)butyl]piperidin-4-yl]-N-methyl-4H-3,1-benzothiazin-2-amine]", "values": [
      {"measurement": "% arterial pressure variation", "setting": "anesthetized rabbit; 0.63 mg/kg p.o.", "result": 9, "unit": "%"},
      {"measurement": "% heart rate variation", "setting": "anesthetized rabbit; 0.63 mg/kg p.o.", "result": 9, "unit": "%"},
      {"measurement": "% inhibition with regard to ST-segment elevation", "setting": "anesthetized rabbit; 0.63 mg/kg p.o.", "result": 33, "unit": "%"},
      {"measurement": "Number of animals exhibiting reperfusion arrhythmias", "setting": "anesthetized rabbit; 0.63 mg/kg p.o.", "result": "1/5"},
      {"measurement": "inhibition at 1 µM", "setting": "[1]", "result": 48, "unit": "%"},
      {"measurement": "inhibition at 0.1 µM", "setting": "rat isolated left atrium", "result": 25, "unit": "%"}
    ]},
    {"compound": "CN(c1nc2ccccc2s1)C1CCN(CCCCOc2ccc(F)cc2)CC1", "note": "[R 56865, N-(1-(4-(4-Fluorophenoxy)butyl)piperidin-4-yl)-N-methyl-2-benzothiazolamine]", "values": [
      {"measurement": "% arterial pressure variation", "setting": "anesthetized rabbit; 2.5 mg/kg p.o.", "result": 27, "unit": "%"},
      {"measurement": "% heart rate variation", "setting": "anesthetized rabbit; 2.5 mg/kg p.o.", "result": 0, "unit": "%"},
      {"measurement": "% inhibition with regard to ST-segment elevation", "setting": "anesthetized rabbit; 2.5 mg/kg p.o.", "result": 0, "unit": "%"},
      {"measurement": "Number of animals exhibiting reperfusion arrhythmias", "setting": "anesthetized rabbit; 2.5 mg/kg p.o.", "result": "2/5"},
      {"measurement": "inhibition at 0.1 µM", "setting": "rat isolated left atrium", "result": 33, "unit": "%"}
    ]}
  ]
}
